For assay [1], the target named is T1, recombinant human NC (rhNC) (Homo sapiens, UniProt Q9NR71).
T1 construct: purchased R&D Systems
Description: Neutral ceramidase assay, fluorogenic substrate RBM14-C24:1. It counts as biochemical. Particulars: single-point concentration of 50 μM; means of three replicates. How it is done: As mentioned above, hydrolysis of ceramides occurs by the action of ceramidases which are encoded by five known genes and are distinguished by the pH required for optimal activity. A common problem with AC inhibitors, especially those one with a scaffold related to the structure of ceramide, is the lack of selectivity over other ceramidases. Thus, to discard a selectivity issue, the activity of nine detected hits against neutral ceramidase was next explored at 50 µM. Activity over NC was tested using recombinant human NC (rhNC) and a specific NC substrate bearing a nervonic acid amide (RBM14-C24:1)[30]. Remarkably, none of the molecules elicited a significant inhibitory activity, thereby confirming the selective inhibition of AC over NC (Supplemental Table 1).
The NC assay was performed in 96-well plates at a final volume of 100 µL/well. Reaction buffers was 25 mM phosphate buffer 150 mM NaCl 1% (NaChol) pH 7.4. The reaction mixtures contained 25 µL/well of protein (5 ng recombinant NC R&D Systems, >95% pure), 70 µL/well of substrate (prepared from 4 mM stock solutions in ethanol) and 5 µL/well of inhibitor (prepared from 1 mM stock solutions in DMSO/H2O). Reaction mixtures were incubated at 37 °C for 1 h and reactions were stopped with 25 µL/well of MeOH followed by 100 µL/well of NaIO4 (2.5 mg/mL in 100 mM glycine-NaOH buffer, pH 10.6). After incubation at 37 °C for 1 h in the dark, 100 µL/well of 100 mM glycine-NaOH buffer (pH 10.6) was added and fluorescence was measured spectrophotometrically at excitation and emission wavelenght of 355 and 460 nm, respectively. The same reaction mixtures without enzymes were used as blanks.

Assay [2] addresses T2, acid ceramidase (AC) (Homo sapiens, UniProt Q13510).
T2 construct: expressed in transfected cells
T2 sequence (Q13510 22-395): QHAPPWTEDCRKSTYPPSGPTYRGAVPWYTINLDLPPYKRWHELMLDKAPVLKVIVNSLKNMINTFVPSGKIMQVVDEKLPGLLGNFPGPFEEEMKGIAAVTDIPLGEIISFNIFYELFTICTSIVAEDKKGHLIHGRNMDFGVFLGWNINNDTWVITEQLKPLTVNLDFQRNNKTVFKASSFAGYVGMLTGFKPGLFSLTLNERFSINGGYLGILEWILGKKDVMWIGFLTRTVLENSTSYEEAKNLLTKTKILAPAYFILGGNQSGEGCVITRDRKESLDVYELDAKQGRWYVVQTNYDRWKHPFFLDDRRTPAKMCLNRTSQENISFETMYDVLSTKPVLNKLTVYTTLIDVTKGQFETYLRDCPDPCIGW
Description: Acid ceramidase HTS assay, 384-well fluorogenic (RBM14-C12), cell lysates. It counts as biochemical. The conditions noted are these: for IC50: dose-titration, 8-point two-fold dilution from 200 micromolar, 95% confidence interval in brackets, means of three replicates; for inhibition at 20 µM: primary assay, single-point concentration of 20 μM, lysates of AC-overexpressing A375 melanoma cells, substrate RBM14-C12 20 µM, pH 4.5. The procedure:
To start with, the final reaction volume was adapted from 100 µL (96-well-format) to 32 µL (384 well-format) with a final concentration of substrate of 20 µM. Next, protein concentration was adjusted using cell lysates of AC-overexpressing A375 melanoma cells. Ideally, the optimal amount of protein is the one that ensures reaction linearity over a period of time together with less than 10% of substrate depletion, in order to assume that the enzyme operates at steady-state conditions. Thus, different amounts of cell lysates were mixed with the substrate and product formation was measured over 1 h. […] Finally, an amount of 0.4 µg of protein was chosen, as higher amounts of proteins were not in the linear portion whereas lower amounts would compromise the signal window. The optimal incubation time of the reaction mixture was next explored. […] As a first validation step, we performed a control run consisting of 60 wells representing AC activity and 60 wells representing the signal in absence of the enzyme. […] The calculated coefficients of variation (CV) for both the high and low controls were 6.08% and 17.1% respectively.
After having successfully established the optimal reaction conditions in a 384-well format, we employed this newly miniaturised AC assay in a pilot screen against a library of 4100 compounds. The screen was carried out at a single dose of 20 µM for each library compound in 6% DMSO (v/v) and in duplicate. The acid ceramidase inhibitor SOCLAC was used as a pharmacological control for the assay. The Z’-factor per plate were consistent with those obtained during the initial validation. […] An example hit map from one screening plate is shown (Figure 2(C)). The inhibitory activity of these hits was then validated in an additional assay performed at a single-point concentration in triplicates.
To confirm the results from the primary screening, top hits were cherry-picked and tested in a concentration-dependent response assay with triplicates per sample. Thus, 101 compounds were then subjected to 8-points two-fold dilution series starting at a maximum concentration of 200 micromolar.
(§1) The A375 cell line stably overexpressing ASAH1 under the control of a tetracycline/doxycycline-responsive promoter was kindly provided by Dr. Carmen Bedia and Prof. Thierry Levade[17]. The antibiotic selection of this cell line was performed with blasticidin (3 µg/mL) and hygromycin B (250 µg/mL). Ectopic expression of AC was induced with doxycycline at 1 µg/mL for 24 h before use. Cells were suspended in the appropriate volume of a 0.25 M saccharose solution with the proteases inhibitors aprotinin (1 mg/mL), leupeptin (1 mg/mmL) and PMSF (100 mM). The suspension was submitted to three cycles of a 5 s sonication (probe) at 10 watts/5 s resting on ice. The cell lysate was centrifuged at 600 g for 5 min. The supernatant was collected and protein concentration was determined with BSA as a standard using the bicinchoninic acid (BCA) protein determination kit (Thermo Scientific) according to the manufacturer’s instructions.
A previously described 96-well plate assay[25] was miniaturised into a 384-well plate format with a final reaction volume of 32 µL. Plated compounds were diluted with a mixture of DMSO/H2O (1.6 µL/18 µL), and after centrifugation, 3.2 µL were dispensed into a new 384-well plate, so that the final concentration of the compound in the final reaction volume of 32 µL was 20 µM and the DMSO content of the assay was 1%. Next, 20.8 µL of a substrate solution of RBM14-C12 in sodium acetate buffer (25 mM, pH 4.5) was added for a final concentration of 20 µM, followed by the addition of 8 µL of a 0.25 M sucrose solution of cell lysates from AC-overexpressing A375 melanoma cells containing 0.4 µg of protein The reaction was terminated after 60 min incubation at 37 °C by adding 8 µL of methanol. Oxidation was performed by treatment with 32 µL of a [2.5 mg/mL] solution of NaIO4 in 100 mM glycine-NaOH buffer (pH 10.6). […]

Assay [3] addresses T3, acid ceramidase in AC overexpressing A375 cells (Homo sapiens, UniProt Q13510).
T3 construct: expressed in transfected cells
T3 sequence (Q13510 22-395): T2 sequence (Q13510 22-395)
Description: Fluorogenic ceramidase activity assay in intact cells (RBM14-C12). It counts as cell-based. Particulars: for inhibition at 20 µM: A-375, single-point concentration of 20 µM, 3 h, triplicate. How it is done: Cell-based assays allow evaluating biological activity in a more physiologically relevant system that also considers additional factors that might have a positive impact on inhibitory potency such as permeabilization through cellular membranes, metabolisation or concentration by intracellular compartmentalisation. Thus, the activity of the nine selected hits was next examined in intact cells using AC overexpressing A375 cells and the fluorogenic substrate RBM14-C12. First, compounds were tested in a primary screening assay. Measurements were performed in triplicated at a single-point concentration of 20 µM.
as §1
To determine activity in intact cells, 2 × 10^4 cells/well were seeded in 96-well plates 24 h prior to the assay and maintained at 37 °C and 5% CO2. Overexpression of AC was induced with doxycycline at 1 µg/mL for 24 h. […] After incubation at 37 °C for 1 h in the dark, 100 µL/well of 100 mM glycine-NaOH buffer (pH 10.6) were added and fluorescence was measured spectrophotometrically at excitation and emission wavelengths of 355 and 460 nm, respectively. […]

T1 sequence (Q9NR71 whole entry): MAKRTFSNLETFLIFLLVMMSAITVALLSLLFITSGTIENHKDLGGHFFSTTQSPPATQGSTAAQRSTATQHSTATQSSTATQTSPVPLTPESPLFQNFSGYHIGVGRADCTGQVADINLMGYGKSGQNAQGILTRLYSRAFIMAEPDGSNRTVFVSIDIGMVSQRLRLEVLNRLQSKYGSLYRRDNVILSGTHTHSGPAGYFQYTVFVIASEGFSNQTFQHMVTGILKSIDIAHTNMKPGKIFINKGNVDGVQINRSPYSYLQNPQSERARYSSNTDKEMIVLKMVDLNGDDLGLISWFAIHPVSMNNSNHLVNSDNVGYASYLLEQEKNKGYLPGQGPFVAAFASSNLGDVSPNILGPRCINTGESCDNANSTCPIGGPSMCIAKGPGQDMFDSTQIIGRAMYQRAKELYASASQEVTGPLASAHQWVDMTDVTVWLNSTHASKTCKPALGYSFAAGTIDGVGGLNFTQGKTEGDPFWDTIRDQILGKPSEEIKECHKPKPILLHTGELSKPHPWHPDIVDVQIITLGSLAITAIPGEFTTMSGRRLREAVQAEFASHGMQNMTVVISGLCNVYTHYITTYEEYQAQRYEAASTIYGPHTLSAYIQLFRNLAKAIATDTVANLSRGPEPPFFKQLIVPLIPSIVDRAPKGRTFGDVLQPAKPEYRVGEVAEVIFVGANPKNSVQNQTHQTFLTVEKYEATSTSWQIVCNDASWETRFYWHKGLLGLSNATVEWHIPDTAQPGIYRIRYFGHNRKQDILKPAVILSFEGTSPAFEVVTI

One may read the inhibition as the drop in the measured response relative to a control, in per cent. In general, IC50 refers to the concentration that gives 50% inhibition. As to `CC(C)(C)CC(=O)N1CCN(c2cccc(C(F)(F)F)c2)CC1` [W000113414_C16], the inhibition at 50 µM in assay [1] is -4.1%. Also, in assay [2], the 50% inhibitory concentration (IC50) turned out to be 48.9 µM and the inhibition at 20 µM amounted to 59%.
As to `CCC(CC)(c1ccc(OCC2(C(C)(C)C)OCCO2)c(C)c1)c1cc(C)c2oc(C(=O)NCC(=O)O)cc2c1` [W000113414_I13], in assay [1], the inhibition at 50 µM worked out at 22.9%. Also, the inhibition at 20 µM in assay [2] is 67.4%.
In the case of `Cc1ccc(CN2CC(C(=O)N(C)Cc3ccc(Cl)c(Cl)c3)CC2=O)cc1` (centres unmarked) [W000113407_J11], in assay [1], the inhibition at 50 µM was found to be 20.8%. In assay [2], 23.9 µM corresponded to half-maximal inhibition (IC50) and the inhibition at 20 µM is 59.2%.
As for `CC1CCCCN1C(=O)Nc1ccc(Oc2ccccc2)cc1` (centres unmarked) [W000113402_O07], in assay [1], the inhibition at 50 µM is 8.5%. In assay [2], it took 7.9 µM to reach half-maximal inhibition (IC50) and the inhibition at 20 µM worked out at 53.8%.
The corresponding values for `CC(OC(=O)c1c2c(nc3ccccc13)/C(=C/c1cccs1)CC(C(C)(C)C)C2)C(=O)Nc1ccc(C(N)=O)cc1` (centres unmarked) [W000113400_H06] are 35.6%, 15.8 µM and 41.7%.
The corresponding values for `C=CCNC(=S)Nc1ccc(Cl)c([N+](=O)[O-])c1` [W000113403_I18] are 23.4%, 10.6 µM and 63.4%.
As to `CCCCc1ccc(C(=O)CCC2C(=O)c3ccccc3C2=O)cc1` [W000113414_D15], in assay [1], the inhibition at 50 µM is -1.3%. In assay [2], the 50% inhibitory concentration (IC50) amounted to 36.7 µM and the inhibition at 20 µM was found to be 60.4%.
With `Cc1cc(O[C@H](c2ccc(C(=O)NC[C@H](O)C(=O)O)s2)C(C)C)cc(C)c1-c1ccc(C(F)(F)F)cc1` [W000113414_H19], in assay [1], the inhibition at 50 µM is -8.9%. Besides, in assay [2], the midpoint of inhibition, the IC50, lay at 11.1 µM and the inhibition at 20 µM stood at 61.4%. The inhibition at 20 µM in assay [3] amounted to 32%.
For `CN(CCc1ccccn1)S(=O)(=O)c1cccc(Br)c1` [W000113402_C12], in assay [1], the inhibition at 50 µM was -5.9%. Moreover, the IC50 worked out at 10.6 µM in assay [2] and 32 µM in assay [3] (interval (24.3–44.7) printed, read-out: IC50 in the cell-based assay). For the same molecule, the inhibition at 20 µM in assay [2] was 75.5%; in assay [3] it was 53%.

(Values after article PMC9762759, “High-throughput discovery of novel small-molecule inhibitors of acid Ceramidase” (Journal of Enzyme Inhibition and Medicinal Chemistry, 2022).)
